Here are results for seven molecules from paper PMC8552062, “Contributions of UDP-Glucuronosyltransferases to Human Hepatic and Intestinal Metabolism of Ticagrelor and Inhibition of UGTs and Cytochrome P450 Enzymes by Ticagrelor and its Glucuronidated Metabolite” (Frontiers in Pharmacology, 2021).

In data set [1] the test system is ticagrelor glucuronidation in pooled HIM. Briefly: Effects of typical UGT inhibitors on ticagrelor glucuronidation in pooled HIM. As to conditions: 10 μM ticagrelor. The data set is classed as in vitro ADME, human. How it is done: (§1) Ticagrelor glucuronidation was investigated in an in vitro incubation system by using HLM, HIM, and recombinant human UGTs. The incubation system consisted of enzyme sources (HLM, HIM, or human recombinant UGTs), various concentrations of ticagrelor (dissolved in 50% methanol, 1% v/v, 1, 2, 5, 10, 20, 50, 100, 200, 500 μM of final concentration), alamethicin (50 μg/mg protein), 5 mM MgCl2, 100 mM tris-HCL buffer (pH 7.4), and 5 mM UDPGA in a total volume of 100 μl. Alamethicin is a pore-forming polypeptide used to activate UGTs in HLM and HIM ([Fisher et al., 2000]). Preliminary studies were conducted to determine the optimal protein concentrations and incubation times. Linear conditions of ticagrelor-O-Glu formation from ticagrelor, i.e., HLM, 0.2 mg of protein/ml and 60 min, HIM, 0.2 mg of protein/ml and 60 min, and recombinant human UGTs, 0.2 mg of protein/ml and 60 min were selected. The incubation mixture without UDPGA was placed on ice for 15 min to activate UGT by alamethicin. After pre-incubation for 5 min at 37°C, the reactions were started by the addition of UDPGA. After another 60 min of incubation at 37°C, the reaction was terminated by adding 100 μl of acetonitrile containing internal standard (diazepam). The mixture vortexed for 2 min and then centrifuged at 14,000 rpm for 10 min at 4°C. The resulting supernatant was injected into a liquid chromatography tandem mass spectrometry (LC-MS/MS, Applied Biosystems/MDS Sciex, Foster City, CA) system for the detection of ticagrelor-O-Glu.
(§2) The final concentrations of UGT inhibitors for each UGT isoform were set in accordance with previous publications as follows: atazanavir, 1 μM, UGT1A1; celastrol, 5 μM, UGT1A3; hecogenin, 1 μM, UGT1A4; niflumic acid, 1 μM, UGT1A9; and mefenamic acid, 20 μM, UGT2B7 ([Lee et al., 2019]). The assays were performed as described above, with 10 μM ticagrelor. The percentage of remaining glucuronidation activity was expressed by the following equation: Remaining activity(%)=Concentration of ticagrelor-O-Glu with inhibitor /Concentration of ticagrelor-O-Glu without inhibitor×100.

Data set [2] relates to ticagrelor glucuronidation in pooled HLM. The data set is described as follows: Effects of typical UGT inhibitors on ticagrelor glucuronidation in pooled HLM. It is filed as in vitro ADME, human. The conditions noted are these: 10 μM ticagrelor. How it is done:
as §1, §2

Substrate in data set [3]: CCCSc1nc(N[C@@H]2C[C@H]2c2ccc(F)c(F)c2)c2nnn([C@@H]3C[C@H](OCCO)[C@@H](O)[C@H]3O)c2n1
Briefly: Ticagrelor glucuronidation by recombinant human UGT1A1. It is filed as in vitro ADME. As to conditions: other: recombinant UGT1A1, Michaelis-Menten kinetics; pH 7.4; 37.0 °C. How it is done: as §1
(§3) Kinetic analyses were performed using the mean values of triplicate determinations with either pooled HLM, HIM, or recombinant human UGTs. All data were analyzed by nonlinear regression analysis using the GraphPad Prism 6 (GraphPad Software Inc., CA, United States). Michaelis-Menten kinetics (Eq. 1) or substrate inhibition kinetics (Eq. 2) ([Houston and Kenworthy, 2000]) were tested to determine the optimal model for describing the data. […] Intrinsic clearance (CLint) was calculated by dividing Vmax by Km.

Substrate in data set [4]: CCCSc1nc(N[C@@H]2C[C@H]2c2ccc(F)c(F)c2)c2nnn([C@@H]3C[C@H](OCCO)[C@@H](O)[C@H]3O)c2n1
The data set is described as follows: Ticagrelor glucuronidation by recombinant human UGT2B7. The data set is classed as in vitro ADME. The conditions noted are these: other: recombinant UGT2B7, Michaelis-Menten kinetics; pH 7.4; 37.0 °C. How it is done: as §1, §3

`COC(=O)N[C@H](C(=O)N[C@@H](Cc1ccccc1)[C@@H](O)CN(Cc1ccc(-c2ccccn2)cc1)NC(=O)[C@@H](NC(=O)OC)C(C)(C)C)C(C)(C)C` [atazanavir]: the “inhibition of ticagrelor-O-Glu formation” value is 6.08% in data set [1] (inhibitor 1 μM) and 6.66% in data set [2] (inhibitor 1 μM).
`CC1=C(O)C(=O)C=C2C1=CC=C1[C@@]2(C)CC[C@@]2(C)[C@@H]3C[C@](C)(C(=O)O)CC[C@]3(C)CC[C@]12C` [celastrol]: the figures for the “inhibition of ticagrelor-O-Glu formation” value in data set [1] (inhibitor 5 μM) and in data set [2] (inhibitor 5 μM) were 25.02% and 19.35%, respectively.
For `Cc1cccc(Nc2ccccc2C(=O)O)c1C` [mefenamic acid], the figures for the “inhibition of ticagrelor-O-Glu formation” value in data set [1] (inhibitor 20 μM) and in data set [2] (inhibitor 20 μM) were 19.24% and 42.95%, respectively.
Take `O=C(O)c1cccnc1Nc1cccc(C(F)(F)F)c1` [niflumic acid]: the “inhibition of ticagrelor-O-Glu formation” value amounted to 17.45% in data set [1] (inhibitor 1 μM) and 35.48% in data set [2] (inhibitor 1 μM).
With hecogenin, the “inhibition of ticagrelor-O-Glu formation” value in data set [1] (inhibitor 1 μM) is reported as 16.75%; in data set [2] (inhibitor 1 μM) it was 9.29%.

B1: recombinant human UGT1A1 (Homo sapiens) (protein)
chain: HAGKILLIPVDGSHWLSMLGAIQQLQQRGHEIVVLAPDASLYIRDGAFYTLKTYPVPFQREDVKESFVSLGHNVFENDSFLQRVIKTYKKIKKDSAMLLSGCSHLLHNKELMASLAESSFDVMLTDPFLPCSPIVAQYLSLPTVFFLHALPCSLEFEATQCPNPFSYVPRPLSSHSDHMTFLQRVKNMLIAFSQNFLCDVVYSPYATLASEFLQREVTVQDLLSSASVWLFRSDFVKDYPRPIMPNMVFVGGINCLHQNPLSQEFEAYINASGEHGIVVFSLGSMVSEIPEKKAMAIADALGKIPQTVLWRYTGTRPSNLANNTILVKWLPQNDLLGHPMTRAFITHAGSHGVYESICNGVPMVMMPLFGDQMDNAKRMETKGAGVTLNVLEMTSEDLENALKAVINDKSYKENIMRLSSLHKDRPVEPLDLAVFWVEFVMRHKGAPHLRPAAHDLTWYQYHSLDVIGFLLAVVLTVAFITFKCCAYGYRKCLGKKGRVKKAHKSKTH
notes: purchased BD Gentest; host or cells: baculovirus-infected insect cells
For B1, in data set [3], the Km (commonly the concentration of substrate that gives half-maximal velocity) worked out at 7.57 µM, the maximal velocity (Vmax) (commonly the rate approached at saturating substrate) was 2e-07 µmol/min/mg and the Vmax/Km stood at 0.03 µL/min/mg.

B2: recombinant human UGT2B7 (Homo sapiens) (protein)
chain: GKVLVWAAEYSHWMNIKTILDELIQRGHEVTVLASSASILFDPNNSSALKIEIYPTSLTKTELENFIMQQIKRWSDLPKDTFWLYFSQVQEIMSIFGDITRKFCKDVVSNKKFMKKVQESRFDVIFADAIFPCSELLAELFNIPFVYSLSFSPGYTFEKHSGGFIFPPSYVPVVMSELTDQMTFMERVKNMIYVLYFDFWFEIFDMKKWDQFYSEVLGRPTTLSETMGKADVWLIRNSWNFQFPYPLLPNVDFVGGLHCKPAKPLPKEMEDFVQSSGENGVVVFSLGSMVSNMTEERANVIASALAQIPQKVLWRFDGNKPDTLGLNTRLYKWIPQNDLLGHPKTRAFITHGGANGIYEAIYHGIPMVGIPLFADQPDNIAHMKARGAAVRVDFNTMSSTDLLNALKRVINDPSYKENVMKLSRIQHDQPVKPLDRAVFWIEFVMRHKGAKHLRVAAHDLTWFQYHSLDVIGFLLVCVATVIFIVTKCCLFCFWKFARKAKKGKND
notes: as for B1
With B2, in data set [4], the Km turned out to be 14.53 µM, the maximum rate (Vmax) was found to be 2.3e-07 µmol/min/mg and the Vmax/Km stood at 0.02 µL/min/mg.
